Assay results from US6017956A, “N,N-disubstituted amic acid derivatives” (Banyu Pharmaceutical Co., Ltd., priority 1994, dated 2000).
pIC50: −log10 of the molar value.

Legend:
[1] = tested on: farnesyl-modification of Ras protein in NIH3T3 cells transformed by activated ras gene; experiment: Inhibitory activities against farnesyl-modification of Ras protein in NIH3T3 cells transformed by activated ras gene; format: cell-based; conditions: Mus musculus, 24 hours, proportion of non-farnesyl-modified Ras protein by densitometer, read-out: 50% inhibitory concentrations against farnesyl-modification of Ras protein, IC50
Procedure: PHARMACOLOGICAL TEST EXAMPLE 2
(Inhibitory Activities Against Farnesyl-Modification of Ras Protein)
Using the compounds of the present invention, inhibitory activities against farnesyl-modification of Ras protein in NIH3T3 cells transformed by activated ras gene, were measured.
The NIH3T3 cells transformed by activated ras gene, were seeded on a culture plate and cultured for 3 days. Then, a compound of the present invention in a predetermined concentration was added to the culture. In accordance with the method disclosed in J. Biol. Chem., vol. 268, p. 18415 (1993), the cells were cultured for 24 hours and then taken off from the plate, and the cells were dissolved. After centrifugal separation for 5 minutes under 12000 g, the supernatant was used as a cell extract. The cell extract was subjected to SDS polyacrylamide gel electrophoresis to separate farnesyl-modified Ras protein and non-farnesyl-modified Ras protein. The protein on the gel was transferred onto a nitrocellulose membrane, and an anti-Ras protein antibody was reacted as a probe (primary antibody reaction). An anti-primary antibody, a peroxidase inclusion (secondary antibody), was reacted, and then Ras protein was detected by a chemical fluorescence enhancing kit. The proportion of non-farnesyl-modified Ras protein was quantified by a densitometer and taken as the inhibitory activity.
The 50% inhibitory concentrations (IC50 values) of the compounds of the present invention against farnesyl-modification of Ras protein as shown in Table

[2] = molecular target: T1, protein-farnesyl transferase (PFT) (Rattus norvegicus, UniProt Q02293+Q04631); experiment: Inhibitory activities against protein-farnesyl transferase; format: biochemical; conditions: PFT derived from rat brain; prenyl acceptor H-ras protein or biotin-added Lys-Thr-Ser-Cys-Val-Ile-Met; 37° C., 20 minutes; read-out: 50% inhibitory concentrations against PFT activities, IC50
T1 construct: PFT derived from rat brain; from tissue; host or cells: rat brain, soluble fraction (30-50% ammonium sulfate cut, Q-Sepharose fraction)
Procedure: Inhibitory activities against protein-farnesyl transferase
PFT was separated in such a manner that a soluble fraction of rat's brain was fractionated by means of 30%-50% saturated ammonium sulfate, further dialyzed and then subjected to column chromatography by Q-cephalose™ (manufactured by Pharmacia) (Reiss et al, Cell, vol. 62, p. 81-88 (1990)).
(2) Method for measuring PFT activities
Measurement of PFT activities was conducted by using, as a prenyl acceptor, H-ras protein or a substance that biotin was added to N-terminal of a peptide corresponding to a 7 amino acid residue at C terminal of K-rasB protein (biotin-added Lys-Thr-Ser-Cys-Val-Ile-Met) and, as a prenyl doner, [^3 H]-labeled farnesylpyrophosphate (FPP) (Reiss et al, Methods: A Companion to a Methods in Enzymology, vol. 1, No. 3, p. 241-245 (1990)). […]
The enzymatic reaction product containing H-ras protein as the prenyl acceptor, was analyzed by SDS-PAGE (sodium dodecylsulfate/polyacrylamide gel electrophoresis). […]
The measurement of PFT activities using H-ras protein as the prenyl receptor, was also analyzed by a rapid separate method. […]

pIC50 [2]	Compound	pIC50 [1]
	C[C@H]([C@H](Cc1ccc(C(=O)Nc2ccccc2)o1)c1ccc([N+](=O)[O-])cc1)N(Cc1ccc2ccccc2c1)C(=O)C(O)=C(CC(=O)O)C(=O)OC(C)(C)C (racemic) [Example 25, 3-tert-butoxycarbonyl-4-hydroxy-4-[N-[(1RS,2RS)-1-methyl-2-(4-nitrophenyl)-3-{5-(phenylcarbamoyl)-2-furyl}propyl]-N-(2-naphthylmethyl)carbamoyl]-3-butenoic acid]	7.68
	C=CCOC(=O)C(CC(=O)O)=C(O)C(=O)N(Cc1ccc2ccccc2c1)[C@H](C)[C@H](Cc1ccc(C(=O)Nc2ccccc2)o1)c1ccc2c(c1)OCO2 (racemic) [Example 29, 3-allyloxycarbonyl-4-hydroxy-4-[N-[(1RS,2RS)-1-methyl-2-(3,4-methylenedioxyphenyl)-3-{5-(phenylcarbamoyl)-2-furyl}propyl]-N-(2-naphthylmethyl)carbamoyl]-3-butenoic acid]	8.33
	CC(C)OC(=O)C(CCC(=O)O)=C(O)C(=O)N(Cc1ccc2ccccc2c1)[C@H](C)[C@H](Cc1ccc(C(=O)Nc2ccccc2)o1)c1ccc([N+](=O)[O-])cc1 (racemic) [Example 30, 5-hydroxy-4-isopropoxycarbonyl-5-[N-[(1RS,2RS)-1-methyl-2-(4-nitrophenyl)-3-{5-(phenylcarbamoyl)-2-furyl}propyl]-N-(2-naphthylmethyl)carbamoyl]-4-pentenoic acid]	7.68
9.22	C[C@H]([C@H](Cc1ccc(C(=O)Nc2ccccc2)o1)c1ccc([N+](=O)[O-])cc1)N(Cc1ccc2ccccc2c1)C(=O)CC(CC(=O)O)C(=O)O (stereo partly drawn) [Example 1, N-[(1-RS,2RS)-1-methyl-2-(4-nitrophenyl)-3-{5-(phenylcarbamoyl)-2-furyl}propyl]-N-(2-naphthylmethyl)carbamoylmethylsuccinic acid]	
8.74	C[C@H]([C@H](Cc1cccc(C(=O)Nc2ccccc2)c1)c1ccc(Cl)cc1)N(Cc1ccc2ccccc2c1)C(=O)CC(CC(=O)O)C(=O)O (stereo partly drawn) [Example 10, N-{(1RS,2RS)-2-(4-chlorophenyl)-1-methyl-3-(3-phenylcarbamoylphenyl)propyl}-N-(2-naphthylmethyl)carbamoylmethylsuccinic acid]	
